Measured values as given in PMC9271885 (eBioMedicine, 2022).
Values joined by “and” are separate entries in the source; they are usually repeats but may differ in a detail not shown here. Identical values can stand only once. Like-named read-outs stand apart in the source and are kept apart here.

Assay: Quantification of TIZ in plasma, lung and nasal turbinates of hamsters (HPLC-UV)
Format: in vivo, Syrian hamsters
Method: Quantification of TIZ in plasma and lung tissues was performed by high-performance liquid chromatography with UV detection method (Alliance 2695, Waters, USA) with a lower limit of quantification of 0.01µg/mL. The mobile phase consisted of 0.1% FA in water and 0.1% of FA in ACN (65:35, v/v). The chromatographic separation was achieved using an isocratic mode with an Xbridge BEH C18 2.5μm 4.6 × 100mm column. Peak area was quantified at 340nm using the Waters 2489 detector. TIZ was extracted by a simple protein precipitation method, using acetonitrile for plasma and ice-cold acetonitrile for clarified lung homogenates. Briefly, 200µL of samples matrix was added to 1000µL of acetonitrile solution containing the internal standard (thiopental), then vortexed for 2min followed by centrifugation for 10min at 4°C. The supernatant medium was evaporated under vacuum, then transferred to a 1.5mL Eppendorf tube. The dried residue was reconstituted with 100µl of ACN:water (50:50), vortexed for 30 seconds and centrifuged again for 10min at 4°C. The supernatant was transferred to an autosampler and 50µL was injected.
We used tissues from infected animals sacrificed at 3 dpi following multiple administration (animals from Figure 3); an additional group of uninfected animals treated with a single dose of 13.5mg was used as control. TIZ concentration in plasma and in lung was quantified at 1, 2 and 4 hours post treatment for the single dose analysis (group of 3 animals) and at 12 hours after the last administration for the multiple dose analysis (group of 6 animals).

[1] = multiple dose NTZ 500mg/kg/day BID oral, at 3 dpi, 12 h (trough), individual values
[2] = multiple dose NTZ 750mg/kg/day TID oral, at 3 dpi, 12 hours (trough), individual values
[3] = multiple dose, infected animals, nitazoxanide per os 500 mg/kg/day BID, 12h post-administration, individual animals
[4] = multiple dose, infected animals, nitazoxanide per os 750 mg/kg/day TID, 12h post-administration, individual animals
[5] = single dose nitazoxanide 13.5mg, uninfected animals, 1h post-administration, individual animals
[6] = single dose nitazoxanide 13.5mg, uninfected animals, 2h post-administration, individual animals
[7] = single dose nitazoxanide 13.5mg, uninfected animals, 4h post-administration, individual animals
[8] = single oral dose 13.5mg NTZ, uninfected hamsters, 1 h post-treatment, individual values
[9] = single oral dose 13.5mg NTZ, uninfected hamsters, 2 h post-treatment, individual values
[10] = single oral dose 13.5mg NTZ, uninfected hamsters, 4 h post-treatment, individual values

## O=C(Nc1ncc([N+](=O)[O-])s1)c1ccccc1O [TIZ, tizoxanide]
Syrian, hamster, in vivo, 2.8 mg/kg/day TID, multiple dose, infected animals, nitazoxanide IN 2,8 mg/kg/day TID, 12h post-administration, individual animals, read-out: Lung to plasma ratio
  Kp at 12 h: 12.8
Syrian, hamster, in vivo, 2.8 mg/kg/day TID, multiple dose, infected animals, nitazoxanide IN 2,8 mg/kg/day TID, 12h post-administration, individual animals, read-out: Tizoxanide concentration in blood
  concentration at 12 h: 8 ng/mL
Syrian, hamster, in vivo, 2.8 mg/kg/day, multiple dose, infected animals, nitazoxanide IN 2,8 mg/kg/day TID, 12h post-administration, individual animals, read-out: Tizoxanide concentration in blood
  concentration at 12 h: 30 nM
Syrian, hamster, in vivo, 2.8 mg/kg/day, multiple dose, infected animals, nitazoxanide IN 2,8 mg/kg/day TID, 12h post-administration, individual animals, read-out: Tizoxanide concentration in lungs
  concentration at 12 h: 11.7 ng/mL and 40 nM
Syrian, hamster, in vivo, 750 mg/kg/day TID, multiple dose, infected animals, nitazoxanide per os 750 mg/kg/day TID, 12h post-administration, individual animals, read-out: Tizoxanide concentration in lungs
  concentration at 12 h: 40 nM
hamster, in vivo, 2.8 mg/kg/day, multiple dose NTZ 2.8mg/kg/day TID intranasal, at 3 dpi, 12 hours (trough), read-out: L/p ratio
  Kp at 12 h: 1280
hamster, in vivo, 2.8 mg/kg/day, multiple dose, infected animals, nitazoxanide IN 2,8 mg/kg/day TID, 12h post-administration, individual animals, read-out: Tizoxanide concentration in lungs
  concentration at 12 h: 103 ng/g
hamster, in vivo, 2.8 mg/kg/day, multiple dose, infected animals, nitazoxanide IN 2,8 mg/kg/day TID, 12h post-administration, individual animals, read-out: Tizoxanide concentration in nasal turbinates
  concentration at 12 h: 14.8 ng/mL and 60 nM
hamster, in vivo, 13.5 mg, after single-dose administration (13.5mg NTZ), hamsters, read-out: lung/plasma ratio
  Kp: 0.022 to 0.048
hamster, in vivo, 13.5 mg, single dose nitazoxanide 13.5mg, uninfected animals, 1h post-administration, individual animals, read-out: Tizoxanide concentration in lungs
  concentration at 1 h: 21.5 ng/mL and 80 nM and 161 ng/g
hamster, in vivo, 13.5 mg, single dose nitazoxanide 13.5mg, uninfected animals, 2h post-administration, individual animals, read-out: Lung to plasma ratio
  Kp at 2 h: 0.027
hamster, in vivo, 13.5 mg, single dose nitazoxanide 13.5mg, uninfected animals, 2h post-administration, individual animals, read-out: Tizoxanide concentration in lungs
  concentration at 2 h: 17.1 ng/mL and 60 nM and 132 ng/g
hamster, in vivo, 13.5 mg, single dose nitazoxanide 13.5mg, uninfected animals, 4h post-administration, individual animals, read-out: Lung to plasma ratio
  Kp at 4 h: 0.042
hamster, in vivo, 13.5 mg, single dose nitazoxanide 13.5mg, uninfected animals, 4h post-administration, individual animals, read-out: Tizoxanide concentration in lungs
  concentration at 4 h: 8.3 ng/mL and 30 nM and 61 ng/g
hamster, in vivo, 500 mg/kg/day BID, multiple dose NTZ 500mg/kg/day BID oral, infected hamsters at 3 dpi, 12 h after last dose (trough), mean ± SD, read-out: TIZ concentration Plasma
  concentration at 12 h: 940 ng/mL and 940 nM
hamster, in vivo, 500 mg/kg/day BID, multiple dose, infected animals, nitazoxanide per os 500 mg/kg/day BID, 12h post-administration, individual animals, read-out: Tizoxanide concentration in lungs
  concentration at 12 h: 8.1 ng/mL and 30 nM and 57 ng/g
hamster, in vivo, 750 mg/kg/day TID, multiple dose NTZ 750mg/kg/day TID oral, infected hamsters at 3 dpi, 12 hours after last dose (trough), mean ± SD, read-out: TIZ concentration Plasma
  concentration at 12 h: 1490 ng/mL and 1.49 µM
hamster, in vivo, po, 13.5 mg, single oral dose 13.5mg NTZ, uninfected hamsters, 1 h post-treatment, mean ± SD, read-out: TIZ concentration Plasma
  concentration at 1 h: 5160 ng/mL and 5.16 µM
hamster, in vivo, po, 13.5 mg, single oral dose 13.5mg NTZ, uninfected hamsters, 2 h post-treatment, individual values, read-out: L/p ratio (%)
  Kp at 2 h: 0.027
hamster, in vivo, po, 13.5 mg, single oral dose 13.5mg NTZ, uninfected hamsters, 2 h post-treatment, mean ± SD, read-out: TIZ concentration Plasma
  concentration at 2 h: 3390 ng/mL and 3.39 µM
hamster, in vivo, po, 13.5 mg, single oral dose 13.5mg NTZ, uninfected hamsters, 4 h post-treatment, individual values, read-out: L/p ratio (%)
  Kp at 4 h: 0.042
hamster, in vivo, po, 13.5 mg, single oral dose 13.5mg NTZ, uninfected hamsters, 4 h post-treatment, mean ± SD, read-out: TIZ concentration Plasma
  concentration at 4 h: 820 ng/mL and 820 nM
Multiple dose NTZ 2.8mg/kg/day TID intranasal, at 3 dpi, 12 hours (trough), individual values
  TIZ concentration Lung (µM/g): 0.39 µM/g and 0.41 µM/g
[1]
  L/p ratio (%): 2.7% and 32.8%
  TIZ concentration Lung (µM/g): 0.21 µM/g
[2]
  L/p ratio (%): 2.9% and 6.3%
  TIZ concentration Lung (µM/g): 0.28 µM/g and 0.60 µM/g
Multiple dose, infected animals, nitazoxanide IN 2,8 mg/kg/day TID, 12h post-administration, individual animals
  Tizoxanide concentration in lungs: 0.39 µM/g of lung and 11.3 ng/mL and 110 ng/g of lung and 0.41 µM/g of lung
[3]
  Lung to plasma ratio: 2.7% and 32.8%
  Tizoxanide concentration in blood: 40 ng/mL and 159 ng/mL and 2131 ng/mL and 2192 ng/mL and 171 ng/mL
  Tizoxanide concentration in lungs: 0.21 µM/g of lung and 10.6 ng/mL and 56 ng/g of lung
Multiple dose, infected animals, nitazoxanide per os 500 mg/kg/day BID, 12h post-administration, individual animals, read-out: Tizoxanide concentration in blood
  concentration at 12 h: 150 nM and 600 nM and 8030 nM and 8260 nM and 640 nM
Multiple dose, infected animals, nitazoxanide per os 500 mg/kg/day BID, 12h post-administration, individual animals, read-out: Tizoxanide concentration in lungs
  concentration at 12 h: 40 nM
[4]
  Lung to plasma ratio: 2.9% and 6.3%
  Tizoxanide concentration in blood: 40 ng/mL and 2494 ng/mL and 79 ng/mL and 2205 ng/mL and 1637 ng/mL and 2500 ng/mL
  Tizoxanide concentration in lungs: 9.7 ng/mL and 73 ng/g of lung and 0.28 µM/g of lung and 21.0 ng/mL and 158 ng/g of lung and 0.60 µM/g of lung
Multiple dose, infected animals, nitazoxanide per os 750 mg/kg/day TID, 12h post-administration, individual animals, read-out: Tizoxanide concentration in blood
  concentration at 12 h: 150 nM and 9400 nM and 300 nM and 8310 nM and 6170 nM and 9430 nM
Multiple dose, infected animals, nitazoxanide per os 750 mg/kg/day TID, 12h post-administration, individual animals, read-out: Tizoxanide concentration in lungs
  concentration at 12 h: 80 nM
[5]
  Lung to plasma ratio: 4.8% and 2.2%
  Tizoxanide concentration in blood: 3319 ng/mL and 10008 ng/mL and 2151 ng/mL
  Tizoxanide concentration in lungs: 0.61 µM/g of lung and 26.7 ng/mL and 224 ng/g of lung and 0.84 µM/g of lung
Single dose nitazoxanide 13.5mg, uninfected animals, 1h post-administration, individual animals, read-out: Tizoxanide concentration in blood
  concentration at 12 h: 12510 nM and 37730 nM and 8110 nM
Single dose nitazoxanide 13.5mg, uninfected animals, 1h post-administration, individual animals, read-out: Tizoxanide concentration in lungs
  concentration at 12 h: 100 nM
[6]
  Tizoxanide concentration in blood: 1477 ng/mL and 3758 ng/mL and 4927 ng/mL
  Tizoxanide concentration in lungs: 0.50 µM/g of lung
Single dose nitazoxanide 13.5mg, uninfected animals, 2h post-administration, individual animals, read-out: Tizoxanide concentration in blood
  concentration at 12 h: 5570 nM and 14170 nM and 18580 nM
[7]
  Tizoxanide concentration in blood: 344 ng/mL and 666 ng/mL and 1459 ng/mL
  Tizoxanide concentration in lungs: 0.23 µM/g of lung
Single dose nitazoxanide 13.5mg, uninfected animals, 4h post-administration, individual animals, read-out: Tizoxanide concentration in blood
  concentration at 12 h: 1300 nM and 2510 nM and 5500 nM
[8]
  L/p ratio (%): 4.8% and 2.2%
  TIZ concentration Lung: 0.16 µg/g and 0.22 µg/g
  TIZ concentration Lung (µM/g): 0.61 µM/g and 0.84 µM/g
[9]
  TIZ concentration Lung: 0.13 µg/g
  TIZ concentration Lung (µM/g): 0.50 µM/g
[10]
  TIZ concentration Lung: 0.06 µg/g
  TIZ concentration Lung (µM/g): 0.23 µM/g
